From US8846570B2, “Herbicidal compositions comprising 4-amino-3-chloro-5-fluoro-6-(4-chloro-2-fluoro-3-methoxyphenyl)pyridine-2-carboxylic acid or a derivative thereof and microtubule inhibiting herbicides” (Dow AgroSciences LLC, priority 2012, dated 2014)

What was measured:
Assay in all cases: Pre-emergence soil-applied, greenhouse: visual weed control
Format in all cases: in vivo
[1] = system: Echinochloa colonum (L.) Link (ECHCO)
Description: (§1) Seeds or nutlets of the desired test plant species were planted in a soil matrix prepared by mixing a loam soil (e.g., 32 percent silt, 23 percent clay, and 45 percent sand, with a pH of about 6.5 and an organic matter content of about 1.9 percent) and calcareous grit in an 80 to 20 ratio. The soil matrix was contained in plastic pots with a volume of 1 quart and a surface area of 83.6 square centimeters (cm^2).
(§2) Treatments consisted of the benzyl ester of 4-amino-3-chloro-5-fluoro-6-(4-chloro-2-fluoro-3-methoxy-phenyl)pyridine-2-carboxylic acid (compound A) formulated as an SC (suspension concentrate) and various herbicidal components alone and in combination. Forms of compound A were applied on an acid equivalent basis.
(§3) Treatment requirements were calculated based upon the rates being tested, the concentration of active ingredient or acid equivalent in the formulation, and a 12 mL application volume at a rate of 187 L/ha.
(§4) For treatments comprised of formulated compounds, measured amounts of compounds were placed individually in 25 mL glass vials and diluted in a volume of 1.25% (v/v) Agri-Dex® crop oil concentrate (COC) to obtain 12× stock solutions. […] Application solutions were prepared by adding an appropriate amount of each stock solution (e.g., 1 mL) and diluted to the appropriate final concentrations with the addition of 10 mL of an aqueous mixture of 1.25% (v/v) COC so that the final spray solutions contained 1.25% (v/v) COC.
(§5) For treatments comprised of formulated and technical compounds, weighed amounts of the technical materials were placed individually in 25 mL glass vials and dissolved in a volume of 97:3 (v/v) acetone/DMSO to obtain 12× stock solutions, and measured amounts of the formulated compounds were placed individually in 25 mL glass vials and diluted in a volume of 1.5% (v/v) COC or water to obtain 12× stock solutions. […] Application solutions were prepared by adding an appropriate amount of each stock solution (e.g., 1 mL) and diluted to the appropriate final concentrations with the addition of an appropriate amount of an aqueous mixture of 1.5% (v/v) COC so that the final spray solutions contained 1.25% (v/v) COC. As required, additional water and/or 97:3 (v/v) acetone/DMSO was added to individual application solutions so that the final acetone and DMSO concentrations of the application solutions being compared were 8.1% and 0.25%, respectively.
(§6) All stock solutions and applications solutions were visually inspected for compound compatibility prior to application. Spray solutions were applied to the soil with an overhead Mandel track sprayer equipped with a 8002E nozzles calibrated to deliver 187 L/ha over an application area of 0.503 m^2 at a spray height of 18 inches (46 cm) above average pot height. Control pots were sprayed in the same manner with the solvent blank.
(§7) The treated and control pots were placed in a greenhouse and top watered as needed. When required to ensure good germination and healthy plants, a fungicide treatment and/or other chemical or physical treatment was applied. The pots were maintained in a greenhouse with an approximate 14 hr photoperiod which was maintained at about 29° C. during the day and 26° C. during the night. Nutrients (Peters® Excel 15-5-15 5-Ca 2-Mg) were applied in the irrigation solution as needed and water was added on a regular basis. Supplemental lighting was provided with overhead metal halide 1000-Watt lamps as necessary. After approximately 4 weeks, the condition of the test plants as compared with that of the untreated plants was determined visually and scored on a scale of 0 to 100 percent where 0 corresponds to no injury or growth inhibition and 100 corresponds to complete kill.
(§8) Colby's equation was used to determine the herbicidal effects expected from the mixtures (Colby, S. R. 1967. Calculation of the synergistic and antagonistic response of herbicide combinations. Weeds 15:20-22.). […]

[2] = system: Echinochloa crus-galli (L.) P. Beauv. (ECHCG)
Description: as §1, §2, §3, §4, §5, §6, §7, §8

[3] = system: Sesbania exaltata (Raf.) Cory/Rydb. Ex Hill (SEBEX); conditions: Compound A Benzyl Ester 16 g ae/ha alone
Description: as §1, §2, §3, §4, §5, §6, §7, §8

[4] = system: Setaria faberi Herrm. (SETFA)
Description: as §1, §2, §3, §4, §5, §6, §7, §8

[5] = system: Brachiaria platyphylla (Groseb.) Nash or Urochloa platyphylla (Nash) R.D. Webster (BRAPP)
Description: as §1, §2, §3, §4, §5, §6, §7, §8

[6] = system: Xanthium strumarium L. (XANST); conditions: 27 DAA
Description: as §1, §2, §3, §4, §5, §6, §7, §8

[7] = Compound A Benzyl Ester 16 g ae/ha alone
[8] = Compound A Benzyl Ester 32 g ae/ha alone

| SMILES | Visual Weed Control (%) - 33 DAA ECHCO Obs [1, 7] | Visual Weed Control (%) - 33 DAA ECHCO Obs [1, 8] | Visual Weed Control (%) - 33 DAA ECHCG Obs [2, 7] | Visual Weed Control (%) - 33 DAA ECHCG Obs [2, 8] | Visual Weed Control (%) - 33 DAA SEBEX Obs [3] | Visual Weed Control (%) - 33 DAA SETFA Obs [4, 7] | Visual Weed Control (%) - 33 DAA SETFA Obs [4, 8] | Visual Weed Control (%) - 33 DAA BRAPP Obs [5, 7] | Visual Weed Control (%) - 33 DAA BRAPP Obs [5, 8] | Visual Weed Control (%) Obs ([6]; 140 g ai/ha) | Visual Weed Control (%) Obs ([6]; 280 g ai/ha) |
| --- | --- | --- | --- | --- | --- | --- | --- | --- | --- | --- | --- |
| COc1c(Cl)ccc(-c2nc(C(=O)OCc3ccccc3)c(Cl)c(N)c2F)c1F [Compound A Benzyl Ester, benzyl ester of 4-amino-3-chloro-5-fluoro-6-(4-chloro-2-fluoro-3-methoxy-phenyl)pyridine-2-carboxylic acid] | 12% | 3% | 20% | 33% | 40% | 13% | 13% | 23% | 50% | – | – |
| CSC(=O)c1c(C(F)F)nc(C(F)(F)F)c(C(=O)SC)c1CC(C)C [Dithiopyr, S,S′-dimethyl-2-(difluoromethyl)-4-(2-methylpropyl)-6-(trifluoromethyl)-3,5-pyridinedicarbothioate] | – | – | – | – | – | – | – | – | – | 0% | 17% |
